Measured values reported in publication PMC6916019, “In vitro anti-malarial efficacy of chalcones: cytotoxicity profile, mechanism of action and their effect on erythrocytes” (Malaria Journal, 2019).
In brackets after ≈: the same amount, converted by molar mass. Structures can show the parent of a compound that is named as a salt. Where two headings read alike, the source gives them in different places.

Assays:
[1] = test system: P. falciparum chloroquine resistant strain (RKL-9); test: WHO Mark III schizont maturation inhibition assay, chloroquine resistant strain; assay type: cell-based, Plasmodium falciparum; settings: for IC50: read-out: P. falciparum Chloroquine^R Strain (RKL-9) IC50; for IC90: read-out: P. falciparum Chloroquine^R Strain (RKL-9) IC90; for Selective index (SI) P.falciparum chloroquine^R (RKL-9): SI = CC50 (HeLa)/IC50 (RKL-9); for Resistance Index (RI) IC50 (RKL-9)/IC50 (MRC-2): ratio of IC50 resistant / sensitive strain
Experimental: (§1) These strains were perpetuated in vitro in continuous culture according to the method of Trager and Jensen with slight modifications. Briefly, both sensitive and resistant strains of P. falciparum were maintained in A+ erythrocytes in RPMI-1640 medium (having glutamine, but without any sodium bicarbonate) comprising 1.00 g of dextrose, 5.94 g of HEPES buffer, 40.00 mg of gentamycin. Additionally supplemented with 5% sodium bicarbonate and 10% (v/v) inactivated human AB+ serum then incubated in gas mixture of 5% CO2, 5% O2 and 90% N2 at 37 °C. Parasitized erythrocytes at initial 5% haematocrit were suspended in above mentioned culture medium and parasitaemia was regularly checked to maintain level between 2 and 4% with further sub-culturing for parasitaemia beyond 5%. Growth and multiplication of parasite was monitored by microscopy using Giemsa-stained slides.
(§2) To obtain ring stages of the parasite, the cultures were synchronized using D-sorbitol. The cultures, with majority of ring stages, were treated with equal volume of aqueous 5% D-sorbitol for 5 min and then after centrifugation pellet were suspended in complete medium and fresh erythrocytes synchronized culture with 1% parasitaemia and 5% haematocrit were used for compound concentration response assay.
(§3) The concentration of each test compound needed to hinder multiplication of parasites by 50% (IC50) against P. falciparum strains were obtained through concentration response assay performed in 96-well sterile tissue culture plates. Synchronized parasite cultures were applied to different doses of each compound. Dilutions were performed in gentamycin-free culture medium, and incubated at 37 °C having gaseous mixture (5% CO2, 5% O2 and 90% N2) supply for 24 h. The results were expressed as IC50 values computed from HN-NonLin Regression analysis, as well as mean percentage inhibition ± standard error examined by thick smear Giemsa stained slides. %ParasiteInhibition29,30=100-TotalnumberofSchizontsintestwells/TotalnumberofSchizontsincontrolwell∗100
(§4) Parasite at ring stage was used for compound concentration response assay with parasitaemia of 1% at 5% haematocrit. […] The IC50 and IC90 values of all compounds were determined and the resistance index between the two sensitive and resistant strains was calculated (Table 2). […] The percentage inhibition in schizont maturation was also calculated after incubation of ring stage P. falciparum till 24 h at the same range of drug concentrations (Table 3).

[2] = in vitro
Experimental: (§5) Briefly, fresh erythrocytes were centrifuged for 5 min at 1600 rpm for at least thrice in PBS and then the remaining pellet was re-suspended in PBS at 2% hematocrit. One hundred microlitres of this suspended pellet was added to 96-well sterile culture plate having test compounds at different desired concentrations. PBS alone (for baseline values) and 0.4% Triton X-100 in PBS (for 100% haemolysis) were employed as controls. After keeping at 37 °C for 3 h, the test samples were centrifuged and the supernatant was used for determination of the haemolytic activity quantified in terms of haemoglobin release as monitored spectrophotometrically by taking absorbance at 415 nm [33]. The experiment was done in triplicate and the mean ± SD was calculated [33, 34]. %Haemolysis=[Absorbanceofsample415nm-Absorbanceofblanksample415nm/Absorbanceofpositivecontrol415nm]∗100

[3] = MTT cytotoxicity / cell viability assay; settings: human
Experimental: (§6) Cytotoxicity of the compounds on mammalian cells were accomplished employing HeLa cell line (NCCS, Pune) cultured in DMEM supplemented with 10% FBS by the MTT (3-(4,5-dimethylthiazol-2-yl)-2,5-diphenyltetrazolium bromide) microenzymatic method with certain modifications [32]. Briefly, cells (10^4 cells/200 μL/well) were seeded into 96-well flat-bottom sterile tissue culture plates in complete medium. After 24 h of seeding, the test compounds at different dilutions were added and kept for another 24 h in a humidified chamber with 5% CO2 at 37 °C. Twenty microlitres of MTT (5.00 mg/mL in 1XPBS) stock solution were pipetted into each well, mixed and incubated for at least 3–4 h. After incubation, the plates were centrifuged at 1500 rpm for 5 min. The supernatant was disposed cautiously and 100 μL of DMSO were added to each well to lyse the cell and dissolve the insoluble purple formazan product into a coloured solution. Absorbance was taken at 570 nm to determine formazan formation as a measurement of cell viability. Experiments were performed in triplicate.

[4] = Haemolysis assay on normal erythrocytes
Experimental: as §5

[5] = test system: P. falciparum chloroquine sensitive strain (MRC-2); test: microbe, parasite or virus in culture; settings: for % Schizont maturation inhibition ± SD (MRC-2): Conc. = 6.25 μg/mL; for Selective index (SI) P.falciparum chloroquine^s (MRC-2): SI = CC50 (HeLa)/IC50 (MRC-2); for P. falciparum Chloroquine^s Strain (MRC-2) IC50 / P. falciparum Chloroquine^s Strain (MRC-2) IC90: schizont maturation, ring stage
Experimental: as §1, §2, §3, §4

[6] = test system: haemozoin (β-haematin) production in P. falciparum cultures; test: Haemozoin inhibition assay in P. falciparum cultures; assay type: cell-based, Plasmodium falciparum; settings: drug near IC50 concentration, 48 h, untreated control 547.61 ± 9.52
Experimental: Briefly, the test cultures were centrifuged for 5–10 min at 1300 rpm to dispose of the culture medium. Infected erythrocyte pellet (mingled of β-haematin and erythrocyte membrane) were exposed to 0.01% saponin lysis for 10 min at 25 °C to lyse erythrocyte to release parasites. […] The haemozoin content was quantified by taking the absorbance at 400 nm and using a standard curve prepared from β-haematin. The amount of haemozoin formed in relation to control was calculated. All assays were performed in triplicate.

[7] = test system: HeLa cell line
Experimental: as §6

[8] = test system: normal erythrocytes; test: Haemolysis assay on normal erythrocytes; settings: Conc. = 12.5 μg/mL, 3 h, 37 °C
Experimental: as §5

[9] = test system: HeLa cell line; test: MTT cytotoxicity / cell viability assay; settings: MTT, 24 h, not in table head
Experimental: as §6

[10] = test system: Plasmodium; settings: comparison value, reference not given; cited from earlier work
[11] = Plasmodium falciparum, artemisinin, unit ng/mL
[12] = schizont maturation, 24 h, ring stage
[13] = Plasmodium falciparum, schizont maturation, 24 h, ring stage

Row | SMILES | Selective index (SI) P.falciparum chloroquine^R (RKL-9) [1] | Amount of haemozoin production [6] | % Schizont maturation inhibition ± SD (MRC-2) ([5]; 24 h) | Selective index (SI) P.falciparum chloroquine^s (MRC-2) [5] | P. falciparum Chloroquine^s Strain (MRC-2) IC50 ([5]; 24 h) | P. falciparum Chloroquine^s Strain (MRC-2) IC90 ([5]; 24 h) | % Schizont maturation inhibition ± SD (RKL-9) ([1]; Conc. = 6.25 μg/mL, 24 h) | Resistance Index (RI) IC50 (RKL-9)/IC50 (MRC-2) [1] | P. falciparum Chloroquine^R Strain (RKL-9) IC50 [1, 12] | P. falciparum Chloroquine^R Strain (RKL-9) IC90 [1, 12] | also measured
1 | C[C@@H]1CC[C@H]2[C@@H](C)C(=O)O[C@@H]3O[C@@]4(C)CC[C@@H]1[C@]32OO4 [ART, artemisinin, reference compound] | 327.4 |  |  |  |  |  |  |  |  |  | IC50 [1, 11]: 0.15 ng/mL (≈ 0.000531 µM); IC90 [1, 11]: 0.15 ng/mL (≈ 0.000531 µM); inhibition at 0.00625 µg/mL ([1]; Plasmodium falciparum, artemisinin, Conc. = 6.25 ng/mL, 24 h, read-out: % Schizont maturation inhibition ± SD (RKL-9)): 87.9 ± 2.12%; hemolysis at 3 h, 12.5 ng/mL [2]: 1.94 ± 0.026%; CC50 at 24 h ([3]; HeLa cells): 0.0491 µg/mL (≈ 0.174 µM); viability at 24 h, 12.5 ng/mL ([3]; HeLa cells): 58.92 ± 0.06%
2 | CCN(CC)CCCC(C)Nc1ccnc2cc(Cl)ccc12 (centres unmarked) [CHL, chloroquine, reference compound] |  | 359.52 ± 2.38 ng/mL |  |  |  |  |  |  |  |  | hemolysis at 3 h, 12.5 μg/mL [4]: 0.86 ± 0.001%; inhibition at 6.25 µg/mL ([5]; Plasmodium falciparum, 24 h, read-out: % Schizont maturation inhibition ± SD (MRC-2)): 88.39 ± 0.71%; IC50 ([5]; Plasmodium falciparum, 24 h, read-out: P. falciparum Chloroquine^s Strain (MRC-2) IC50): 0.17 µg/mL (≈ 0.531 µM); IC90 ([5]; Plasmodium falciparum, 24 h, read-out: P. falciparum Chloroquine^s Strain (MRC-2) IC90): 1.14 µg/mL (≈ 3.56 µM); Amount of haemozoin production ([6]; listed as chloroquine): 359.52 ± 2.38 ng/mL; viability at 24 h, 12.5 µg/mL [3]: 58 ± 0.06%
3 | COc1ccc(C=CC(=O)c2cc(OC)ccc2OC)cc1 [Chalcone 2] | 7.57 | 464.28 ± 11.9 ng/mL | 71.76 ± 10.61% | 8.15 | 0.13 µg/mL | 0.51 µg/mL | 58.02 ± 21.21% | 1.08 | 0.14 µg/mL | 0.36 µg/mL | HeLa Cell CC50 [7]: 1.06 µg/mL
4 | COc1ccc(/C=C/C(=O)c2cc(OC)c(OC)c(OC)c2)cc1 [Chalcone 6] | 8.74 | 457.14 ± 38.09 ng/mL | 51.05 ± 42.42% | 4.74 | 0.35 µg/mL | 5.23 µg/mL | 43.85 ± 33.23% | 0.54 | 0.19 µg/mL | 0.98 µg/mL | HeLa Cell CC50 [7]: 1.66 µg/mL
5 | COc1ccc(/C=C/C(=O)c2cc(OC)c(OC)c(OC)c2)cc1OC [Chalcone 7] | 85.05 | 385.71 ± 4.76 ng/mL | 94.24 ± 2.21% | 139.18 | 0.11 µg/mL | 0.46 µg/mL | 85.82 ± 6.36% | 1.64 | 0.18 µg/mL | 0.67 µg/mL | 
6 | O=C(/C=C/c1cc2ccccc2[nH]1)c1ccc(Cl)cc1 [Chalcone 9] | 7.85 |  | 50.32 ± 33.23% | 6.60 | 0.25 µg/mL | 0.96 µg/mL | 48.87 ± 25.46% | 0.84 | 0.21 µg/mL | 0.95 µg/mL | % Hemolysis ± SD [8]: 1.30 ± 0.009%; HeLa Cell CC50 [9]: 1.65 µg/mL
7 | C=C[C@H]1C[N@@]2CC[C@H]1C[C@H]2[C@H](O)c1ccnc2ccc(OC)cc12 [QNN, quinine hydrochloride, reference compound] | 121.24 |  |  |  |  |  |  |  |  |  | IC50 [1, 13]: 250 ng/mL; IC90 [1, 13]: 1590 ng/mL; inhibition at 6.25 µg/mL ([1]; Plasmodium falciparum, Conc. = 6.25 μg/mL, 24 h, read-out: % Schizont maturation inhibition ± SD (RKL-9)): 71.9 ± 16.3%; hemolysis at 3 h, 12.5 μg/mL [2]: 2.16 ± 0.035%; CC50 at 24 h ([3]; HeLa cells): 30.3 µg/mL; viability at 24 h, 12.5 µg/mL ([3]; HeLa cells): 62.62 ± 0.06%
8 | C=CC(C)(C)c1cc(/C=C/C(=O)c2ccc(O)cc2)c(OC)cc1O [licochalcone] |  |  |  |  |  |  |  |  |  |  | IC50 of licochalcone [10]: 1.43 µg/mL
